Test system: KRAS-mutant PDC multicell tumor spheroid viability
Assay: Anticancer human tumor 521955-158-R2-J5-PDC patient-derived pancreatic carcinoma cell line growth inhibition [KRAS2]
Settings: for IC50: curve of first compound; for viability, T/C: stronger effect = lower value
Procedure, shortened: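 KRAS-mutant tumor cells were grown as spheroids with HUVEC endothelial cells and human MSCs as stroma. Targeted agents were tested alone and with KRAS pathway inhibitors. Doses started at or near clinical Cmax, or 10 microM, descending half-log.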

[1] = second compound 0.1 µM, first compound 0.0316 µM
[2] = second compound 0.1 µM, first compound 0.1 µM
[3] = second compound 0.1 µM, first compound 0.316 µM
[4] = second compound 0.1 µM, first compound 1 µM
[5] = second compound 0.1 µM, first compound 3.16 µM
[6] = second compound 0.1 µM, first compound 10 µM
[7] = second compound 0.316 µM, first compound 0.0316 µM
[8] = second compound 0.316 µM, first compound 0.1 µM
[9] = second compound 0.316 µM, first compound 0.316 µM
[10] = second compound 0.316 µM, first compound 1 µM
[11] = second compound 0.316 µM, first compound 3.16 µM
[12] = second compound 0.316 µM, first compound 10 µM
[13] = second compound 1 µM, first compound 0.0316 µM
[14] = second compound 1 µM, first compound 0.1 µM
[15] = second compound 1 µM, first compound 0.316 µM
[16] = second compound 1 µM, first compound 1 µM
[17] = second compound 1 µM, first compound 3.16 µM
[18] = second compound 1 µM, first compound 10 µM
[19] = second compound 3.16 µM, first compound 0.0316 µM
[20] = second compound 3.16 µM, first compound 0.1 µM
[21] = second compound 3.16 µM, first compound 0.316 µM
[22] = second compound 3.16 µM, first compound 1 µM
[23] = second compound 3.16 µM, first compound 3.16 µM
[24] = second compound 3.16 µM, first compound 10 µM
[25] = second compound 10 µM, first compound 0.0316 µM
[26] = second compound 10 µM, first compound 0.1 µM
[27] = second compound 10 µM, first compound 0.316 µM
[28] = second compound 10 µM, first compound 1 µM
[29] = second compound 10 µM, first compound 3.16 µM
[30] = second compound 10 µM, first compound 10 µM
[31] = second compound 0.1 µM, first compound 0.01 µM
[32] = second compound 0.316 µM, first compound 0.01 µM
[33] = second compound 1 µM, first compound 0.01 µM
[34] = second compound 3.16 µM, first compound 0.01 µM
[35] = second compound 10 µM, first compound 0.01 µM
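Also: viability read after seven days of drug exposure.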

Compound	IC50 (second compound 0.1 µM) [nM]	IC50 (second compound 0.316 µM) [nM]	IC50 (second compound 1 µM) [nM]	IC50 (second compound 3.16 µM) [nM]	IC50 (second compound 10 µM) [nM]	viability, T/C [1] [%]	viability, T/C [2] [%]	viability, T/C [3] [%]	viability, T/C [4] [%]	viability, T/C [5] [%]	viability, T/C [7] [%]	viability, T/C [8] [%]	viability, T/C [9] [%]	viability, T/C [10] [%]	viability, T/C [13] [%]	viability, T/C [14] [%]	viability, T/C [19] [%]	viability, T/C [20] [%]	viability, T/C [25] [%]	viability, T/C [26] [%]	further results
CC1OCC2(CCN(c3cnc(Sc4ccnc(N)c4Cl)c(N)n3)CC2)C1N (stereo not given) + CNCc1ccccc1-c1csc(C(C)Nc2nc(C)nc3cc(OC)c(OC)cc23)c1	> 10000	> 10000	> 10000	< 31.6	< 31.6	86.5	83.1	85.6	74.4	67	90.2	85.2	68.5	77.3	90.6	83.5	0.27	0.18	0.15	0.14	viability, T/C [6]: 70.7%; viability, T/C [11]: 75.4%; viability, T/C [12]: 73.1%; viability, T/C [15]: 76.8%; viability, T/C [16]: 70%; viability, T/C [17]: 68.4%; viability, T/C [18]: 75%; viability, T/C [21]: 0.19%; viability, T/C [22]: 0.2%; viability, T/C [23]: 0.36%; viability, T/C [24]: 0.31%; viability, T/C [27]: 0.15%; viability, T/C [28]: 0.13%; viability, T/C [29]: 0.14%; viability, T/C [30]: 0.21%
CC(=O)OC12COC1CC(O)C1(C)C(=O)C(O)C3=C(C)C(OC(=O)C(O)C(NC(=O)OC(C)(C)C)c4ccccc4)CC(O)(C(OC(=O)c4ccccc4)C21)C3(C)C (stereo not given) + COc1cc2nc(C)nc(NC(C)c3cc(N)cc(C(F)(F)F)c3)c2cc1OC1CCOC1	< 10	< 10	< 10	< 10	< 10	13.7	14.5	12.4	18.4	19	14.1	13.6	13.2	15.3	12.9	14	14.3	12.1	13.4	14.3	viability, T/C [31]: 25%; viability, T/C [32]: 17.5%; viability, T/C [11]: 20.2%; viability, T/C [33]: 18.6%; viability, T/C [15]: 14.1%; viability, T/C [16]: 19.4%; viability, T/C [17]: 26.4%; viability, T/C [34]: 14%; viability, T/C [21]: 12.5%; viability, T/C [22]: 17.1%; viability, T/C [23]: 19.6%; viability, T/C [35]: 18.1%; viability, T/C [27]: 14.1%; viability, T/C [28]: 14.3%; viability, T/C [29]: 18.9%
CN(C)C/C=C/C(=O)Nc1cc2c(Nc3ccc(F)c(Cl)c3)ncnc2cc1O[C@H]1CCOC1 + COc1cc2nc(C)nc(NC(C)c3cc(N)cc(C(F)(F)F)c3)c2cc1OC1CCOC1	> 100	> 100	> 100	> 100	> 100	86.8	85	–	–	–	80.4	61.1	–	–	84.3	77.2	77.8	71.8	91.8	72.7	viability, T/C (second compound 0.1 µM, first compound 0.000316 µM): 91.4%; viability, T/C (second compound 0.1 µM, first compound 0.001 µM): 93.2%; viability, T/C (second compound 0.1 µM, first compound 0.00316 µM): 74.3%; viability, T/C [31]: 79.6%; viability, T/C (second compound 0.316 µM, first compound 0.000316 µM): 78.4%; viability, T/C (second compound 0.316 µM, first compound 0.001 µM): 84.8%; viability, T/C (second compound 0.316 µM, first compound 0.00316 µM): 63.5%; viability, T/C [32]: 74.5%; viability, T/C (second compound 1 µM, first compound 0.000316 µM): 79.8%; viability, T/C (second compound 1 µM, first compound 0.001 µM): 99.6%; viability, T/C (second compound 1 µM, first compound 0.00316 µM): 82.6%; viability, T/C [33]: 69.8%; viability, T/C (second compound 3.16 µM, first compound 0.000316 µM): 91.5%; viability, T/C (second compound 3.16 µM, first compound 0.001 µM): 93.9%; viability, T/C (second compound 3.16 µM, first compound 0.00316 µM): 88.5%; viability, T/C [34]: 71.2%; viability, T/C (second compound 10 µM, first compound 0.000316 µM): 90.2%; viability, T/C (second compound 10 µM, first compound 0.001 µM): 82.8%; viability, T/C (second compound 10 µM, first compound 0.00316 µM): 86%; viability, T/C [35]: 85.4%
O=C(c1cc(Cc2n[nH]c(=O)c3ccccc23)ccc1F)N1CCN(C(=O)C2CC2)CC1 + COc1cc2nc(C)nc(NC(C)c3cc(N)cc(C(F)(F)F)c3)c2cc1OC1CCOC1	> 10000	> 10000	> 10000	> 10000	> 10000	92.5	71.2	83.6	88.9	75.5	81.2	66.3	70.2	73	107	102	108	96.6	107	119	viability, T/C [6]: 74.5%; viability, T/C [11]: 79.6%; viability, T/C [12]: 58.2%; viability, T/C [15]: 94.6%; viability, T/C [16]: 96.3%; viability, T/C [17]: 92.3%; viability, T/C [18]: 64.6%; viability, T/C [21]: 97.5%; viability, T/C [22]: 83.9%; viability, T/C [23]: 81.1%; viability, T/C [24]: 51.5%; viability, T/C [27]: 112%; viability, T/C [28]: 96.8%; viability, T/C [29]: 86.8%; viability, T/C [30]: 65.2%

Source: PubChem BioAssay AID1963871 (Molecular Pharmacology Branch, DTP, NCI, 2024)
